Each molecule was assayed on HIV-1 (assay: HIV-1 single-round infectious luciferase reporter virus (pseudotype) assay in HeLa CD4 CCR5 cells). Settings: Human immunodeficiency virus 1, HeLa-CD4/CCR5, 72 h, read-out: EC50 Group from Table 1, HeLa CD4 CCR5 cells, luciferase reporter virus, harvested 72 h after infection.
Format: cell-based
Description: • Virus production—Human embryonic Kidney cell line, 293, propagated in Dulbecco's Modified Eagle Medium (Life Technologies, Gaithersburg, Md.) containing 10% fetal Bovine serum (FBS, Sigma, St. Louis, Mo.). • Virus infection—Human epithelial cell line, HeLa, expressing the HIV-1 receptors CD4 and CCR^5 was propagated in Dulbecco's Modified Eagle Medium (Life Technologies, Gaithersburg, Md.) containing 10% fetal Bovine serum (FBS, Sigma, St. Louis, Mo.) and supplemented with 0.2 mg/mL Geneticin (Life Technologies, Gaithersburg, Md.) and 0.4 mg/mL Zeocin (Invitrogen, Carlsbad, Calif.). […] Transfections were performed using lipofectAMINE PLUS reagent as described by the manufacturer (Life Technologies, Gaithersburg, Md.). Experiment • 1. Compound was added to HeLa CD4 CCR5 cells plated in 96 well plates at a cell density of 5×10^4 cells per well in 100 μl Dulbecco's Modified Eagle Medium containing 10% fetal Bovine serum at a concentration of […]. • 2. 100 μl of single-round infectious reporter virus in Dulbecco's Modified Eagle Medium was then added to the plated cells and compound at an approximate multiplicity of infection (MOI) of 0.01, resulting in a final volume of 200 μl per well and a final compound concentration of <10 μM. • 3. Samples were harvested 72 h after infection. • 4. Viral infection was monitored by measuring luciferase expression from viral DNA in the infected cells using a luciferase reporter gene assay kit (Roche Molecular Biochemicals, Indianapolis, Ind.). Infected cell supernatants were removed and 50 μl of Dulbecco's Modified Eagle Medium (without phenol red) and 50 μl of luciferase assay reagent reconstituted as described by the manufacturer (Roche Molecular Biochemicals, Indianapolis, Ind.) was added per well. Luciferase activity was then quantified by measuring luminescence using a Wallac microbeta scintillation counter. • 5. […] An EC50 provides a method for comparing the antiviral potency of the compounds of this invention. The effective concentration for fifty percent inhibition (EC50) was calculated with the Microsoft Excel Xlfit curve fitting software. For each compound, curves were generated from percent inhibition calculated at 10 different concentrations by using a four paramenter logistic model (model 205). Table 1 is the key for the data in Tables 2-4. Cytoxicity assays were conducted with the same HeLa using methodology well known in the art.
In Table 5, X2, X4 etc. indicates the point of attachment. […] The data at 10 μM was calculated in the following manner:
For compounds tested at concentrations less than 10 μM, the percent inhibition at 10 μM was determined by extrapolation using the XLfit curve fitting feature of the Microsoft Excel spreadsheet software. Curves were obtained from 10 data points (% inhibition determined at 10 concentrations of compound) by using a four parameter logistic model (XLfit model 205: y=A+((B−A)/(I+((C/x)^D))), where, A=minimum y, B=maximum y, C=logEC50, D=slope factor, and x and y are known data values. Extrapolations were performed with the A and B parameters unlocked. […]

SMILES | EC50 [nM]
C[C@@H]1CN(C(=O)c2ccccc2)CCN1C(=O)C(=O)c1c[nH]c2nc(-c3nnn[nH]3)ccc12 [Example 56] | 1000 to 5000

Same assay, conditions: Human immunodeficiency virus 1, HeLa-CD4/CCR5, read-out: EC50 Group from TABLE 1, HeLa CD4 CCR5 cells, single-round infectious luciferase reporter virus

SMILES | EC50 [nM]
CNc1nc(-c2ncc(F)c3c(C(=O)C(=O)N4CCN(C(=O)c5ccccc5)CC4)c[nH]c23)no1 [Example 298] | < 1000
COc1cc(-c2ncc(OC)c3c(C(=O)C(=O)N4CCN(C(=O)c5ccccc5)CC4)c[nH]c23)nc(OC)n1 [Example 68, 1-benzoyl-4-[(4-methoxy-7-(2,6-dimethoxy-pyrimidin-4-yl)-6-azaindol-3-yl)-oxoacetyl]piperazine] | < 1000
COc1cnc(-c2cnccn2)c2[nH]cc(C(=O)C(=O)N3CCN(C(=O)c4ccno4)CC3)c12 [Example 196] | < 1000
COc1cnc(-c2cnc(SC)s2)c2[nH]cc(C(=O)C(=O)N3CCN(C(=O)c4ccccc4)CC3)c12 [Example 93, 1-benzoyl-4-[(4-methoxy-7-(2-methylthio-thiazol-5-yl)-6-azaindol-3-yl)-oxoacetyl]piperazine] | < 1000
COc1cnc(-n2ccc(-c3ccc(C(=O)O)cc3)n2)c2[nH]cc(C(=O)C(=O)N3CCN(C(=O)c4ccccc4)CC3)c12 [Example 292, 1-benzoyl-4-[(4-methoxy-7-(3-(4-hydroxylcarbonylphenyl)-pyrazol-1-yl)-6-azaindol-3-yl)-oxoacetyl]piperazine] | < 1000
O=C(C(=O)N1CCN(C(=O)c2ccccc2)CC1)c1c[nH]c2c(-c3cc4ccccc4o3)nccc12 [Example 8, 1-benzoyl-4-[(7-(benzofuran-2-yl)-6-azaindol-3-yl)-oxoacetyl]piperazine] | < 1000
COc1cnc(-c2cscn2)c2[nH]cc(C(=O)C(=O)N3CCN(C(=O)c4ccccc4)CC3)c12 [Example 174, 1-benzoyl-4-[(4-methoxy-7-(thiazol-4-yl)-6-azaindol-3-yl)-oxoacetyl]piperazine] | < 1000
C[C@H]1CN(C(=O)c2ccccn2)CCN1C(=O)C(=O)c1c[nH]c2c(-c3cnc(N(C)C)cn3)nccc12 [Example 106, (S)-1-picolinoyl-3-methyl-4-[(7-(2-dimethylamino-pyrazin-5-yl)-6-azaindol-3-yl)-oxoacetyl]piperazine] | < 1000
COc1cnc(-c2cn(C)c(=O)cn2)c2[nH]cc(C(=O)C(=O)N3CCN(C(=O)c4ccccc4)CC3)c12 [Example 138, 1-(benzoyl)-4-[(4-methoxy-7-(1-methylpyrazin-2-on-5-yl)-6-azaindol-3-yl)-oxoacetyl]piperazine] | < 1000
COc1cnc(-c2nccn2C)c2[nH]cc(C(=O)C(=O)N3CCN(C(=O)c4ccccc4)CC3)c12 [Example 27, 1-benzoyl-4-[(4-methoxy-7-(1-methyl-imidazol-2-yl)-6-azaindol-3-yl)-oxoacetyl]piperazine] | < 1000
COc1cnc(-n2ccc(-c3cccc(C(F)(F)F)c3)n2)c2[nH]cc(C(=O)C(=O)N3CCN(C(=O)c4ccccc4)CC3)c12 [Example 287, 1-benzoyl-4-[(4-methoxy-7-(3-(3-trifluoromethyl-phenyl)-pyrazol-1-yl)-6-azaindol-3-yl)-oxoacetyl]piperazine] | < 1000
COc1cnc(-n2ccc(CCO)n2)c2[nH]cc(C(=O)C(=O)N3CCN(C(=O)c4ccccc4)CC3)c12 [Example 248, 1-benzoyl-4-[(4-methoxy-7-(3-(3-hydroxylethyl)-pyrazol-1-yl)-6-azaindol-3-yl)-oxoacetyl]piperazine] | < 1000
COc1ncn(-c2ncc(OC)c3c(C(=O)C(=O)N4CCN(C(=O)c5ccccc5)CC4)c[nH]c23)n1 [Example 291, 1-benzoyl-4-[(4-methoxy-7-(3-methoxy-[1,2,4]triazol-1-yl)-6-azaindol-3-yl)-oxoacetyl]piperazine] | < 1000
C[C@@H]1CN(C(=O)c2ccccc2)CCN1C(=O)C(=O)c1c[nH]c2c(-c3cncnc3)ncc(F)c12 [Example 41, 1-benzoyl-3-(R)-methyl-4-[(4-fluoro-7-(pyrimidin-5-yl)-6-azaindol-3-yl)-oxoacetyl]piperazine] | < 1000
O=C(C(=O)N1CCN(C(=O)c2ccccc2)CC1)c1c[nH]c2c(-c3cnccn3)nccc12 [Example 34, 1-benzoyl-4-[(7-(pyrazin-2-yl)-6-azaindol-3-yl)-oxoacetyl]piperazine] | < 1000
CC1CN(C(=O)c2ccccc2)CCN1C(=O)C(=O)c1c[nH]c2c(-c3ccc4c(c3)OCO4)nccc12 (stereo not shown) [Example 5, 1-benzoyl-3-methyl-4-[(7-(3,4-methylenedioxyphenyl)-6-azaindol-3-yl)-oxoacetyl]piperazine] | < 1000
COc1cccc(-c2ncc(OC)c3c(C(=O)C(=O)N4CCN(C(=O)c5ccccc5)CC4)c[nH]c23)n1 [Example 77, 1-benzoyl-4-[(4-methoxy-7-(2-methoxy-pyridin-6-yl)-6-azaindol-3-yl)-oxoacetyl]piperazine] | < 1000
COc1cnc(-c2cnc(NC(C)=O)cn2)c2[nH]cc(C(=O)C(=O)N3CCN(C(=O)c4ccccc4)CC3)c12 [Example 99, 1-(benzoyl)-4-[(4-methoxy-7-(2-acetylamino-pyrazin-5-yl)-6-azaindol-3-yl)-oxoacetyl]piperazine] | < 1000
CC(C)(C)OC(=O)N1CCN(C(=O)C(=O)c2c[nH]c3c(-c4cnccn4)ncc(Cl)c23)CC1 [Example 165] | < 1000
COc1cnc(-c2ccsc2)c2[nH]cc(C(=O)C(=O)N3CCN(C(=O)c4ccccc4)CC3)c12 [Example 83, 1benzoyl-4-[(4-methoxy-7-(thiophen-3-yl)-6-azaindol-3-yl)-oxoacetyl]piperazine] | < 1000
COc1cnc(-c2cnc(N3CCCC3=O)s2)c2[nH]cc(C(=O)C(=O)N3CCN(C(=O)c4ccccc4)CC3)c12 [Example 116, 1-benzoyl-4-[(4-methoxy-7-((2-pyrrolidinon-1-yl)-thiazol-5-yl)-6-azaindol-3-yl)-oxoacetyl]piperazine] | < 1000
C[C@@H]1CN(C(=O)c2ccccc2)CCN1C(=O)C(=O)c1c[nH]c2c(-c3cnc(N)nc3)nccc12 [Example 153, (R)-1-benzoyl-3-methyl-4-[(7-(2-amino-pyrimidin-5-yl)-6-azaindol-3-yl)-oxoacetyl]piperazine] | < 1000
O=C(C(=O)N1CCN(C(=O)c2ccccc2)CC1)c1c[nH]c2c(-n3cccn3)ncc(F)c12 [Example 219] | < 1000

Same assay, conditions: Human immunodeficiency virus 1, HeLa-CD4/CCR5, read-out: EC50 Group from Table 1, Table 2-1; HeLa CD4 CCR5 cells, single-round luciferase reporter virus

SMILES | EC50 [nM]
COc1cnc(-n2ccc(C(C)(C)C)n2)c2[nH]cc(C(=O)C(=O)N3CCN(C(=O)c4ccccc4)[C@H](C)C3)c12 [Example 243, (R)-1-benzoyl-2-methyl-4-[(4-methoxy-7-(3-t-butyl-pyrazol-1-yl)-6-azaindol-3-yl)-oxoacetyl]piperazine] | < 1000
COc1cnc(-c2cnccn2)c2[nH]cc(C(=O)C(=O)N3CCN(C(=O)c4ccccn4)C(C)C3)c12 (stereo not shown) [Example 194, 2-methyl-1-picolinoyl-4-[(4-methoxy-7-(pyrazin-2-yl)-6-azaindol-3-yl)-oxoacetyl]piperazine] | < 1000
COc1cnc(-n2nnc3ccccc32)c2[nH]cc(C(=O)C(=O)N3CCN(C(=O)c4ccccc4)[C@H](C)C3)c12 [Example 246, (R)-1-benzoyl-2-methyl-4-[(4-methoxy-7-(1,2,3-benzotriazol-1-yl)-6-azaindol-3-yl)-oxoacetyl]piperazine] | < 1000

Same assay, conditions: Human immunodeficiency virus 1, HeLa-CD4/CCR5, read-out: EC50 Group from Table 1, Table 4; HeLa CD4 CCR5 cells, single-round luciferase reporter virus

SMILES | EC50 [nM]
C[C@@H]1CN(C(=O)c2ccccc2)CCN1C(=O)C(=O)c1c[nH]c2c(-c3ccsc3)ccnc12 [Example 129] | < 1000

— patent publication US20050090522A1 (priority 2001, published 2005)
